Test results from ChEMBL document CHEMBL3507680, “University of Dundee, Gates Library screen for HepG2 cell viability”.

Assay: Human HepG2 cell viability assay in 384 well format
Type: toxicity, cell-based
Set-up: dose 125 nL, time 70.5 hour; concentration not given beside the values
Conditions: HepG2 cells, read-out: Inhibition

Structure (SMILES) | cytotoxicity at 70.5 h
Cc1ccc(C(=O)NCCNC(=O)c2cncnc2C)cc1F | -11.3%
CC1=N[C@@]2(CC[C@@H]3CN(S(=O)(=O)CC(C)C)C[C@@H]32)C(=O)N1CC(C)C | -5.23%
CCCC(=O)N1CCN(Cc2cc(-c3ccncc3)nn2C)CC1 | 0.205%
O=c1cc(CN2CCCC2)nc2n1CCCN(Cc1ccsc1)C2 | -17.6%
CC(C)OCCC1CCCCN1S(C)(=O)=O (stereo not given) | -8.81%
Cc1ccc(C(=O)N2CC[C@@H]3[C@H]2CCC(=O)N3CC2CC2)o1 | -0.589%
C1=C(c2c[nH]c3ncccc23)CCN(Cc2nnc(C3CC3)o2)C1 | 12.3%
CS(=O)(=O)NCC(=O)NC1CCc2nccn2C1 (stereo not given) | -7.92%
Cc1ccccc1-n1cnnc1SCC(=O)NCC1CCCO1 (stereo not given) | -8.74%
CC(C)c1nsc(N2CCn3c(nnc3-c3ccccc3)C2)n1 | -7.62%
CC(=O)NCc1ccc(C(=O)N2CCCC2c2c(C)nn(C)c2C)o1 (stereo not given) | -9.03%
COc1ccccc1S(=O)(=O)N1CCC2(CC1)OCCCC2O (stereo not given) | -6.84%
CCc1nccn1C1CCCN(C(=O)c2ccc3nncn3c2)C1 (stereo not given) | -6.04%
Cc1nc(C)c(CCN2CCC(Oc3ccccc3F)CC2)s1 | 8.23%
CCN(CCOc1ccc(F)cc1)C(=O)c1ccncc1Cl | -2.29%
CC1(C)CC(N(Cc2ccncc2)Cc2cccnc2)CC(C)(C)N1 | 27.1%
CN1CCOCC2(CCCN(C(=O)Cc3ccncc3)C2)C1 (stereo not given) | -11.6%
Cn1ncc2c1CCCC2NCc1cccc2c1OCCCO2 (stereo not given) | 0.963%
CC1CCN(C(=O)[C@H]2C[C@@H]3CCN(CC4CCOCC4)C[C@H]3O2)CC1 | -6.03%
CCn1cnnc1C1CCN(C(=O)COc2ccccc2OC)CC1 | 6.54%
CC(Cn1cc(Br)cn1)C(=O)Nc1ccncc1 (stereo not given) | 6.88%
O=C(c1csnn1)N1CCc2ccccc21 | 2.68%
CN(C)c1ccc(C(=O)Nc2ccn(CC(N)=O)n2)cn1 | -8.63%

Structure (SMILES) | cytotoxicity at 70.5 h
CN1CCCN(C(=O)NCCOc2ccc3c(c2)OCO3)CC1 | -2.86%
CCc1ccc(S(=O)(=O)NCC2CCN(c3cnccn3)CC2)s1 | -10.3%
Cc1nc(CC(C)C)sc1C(=O)N1CCC1 | -2.02%
Cc1ccccc1OCC(O)C(=O)N1CCC2(CC1)CN(C)C(=O)O2 (stereo not given) | -4.24%
CN(CCCc1cnn(C)c1)Cc1cc2n(n1)CCCN(C)C2 | -7.1%
Cc1nc(-c2cccnc2)ncc1C(=O)N1CCCC(N(C)C)CC1 (stereo not given) | -20%
COc1ccc(Cl)cc1S(=O)(=O)N(C)CC(=O)Nc1ccccc1 | -9.85%
Cc1nc(C2CCN(S(=O)(=O)c3ccc(Cl)cc3)CC2)n[nH]1 | 1.07%
CSCC(C)N(C)C(=O)CN1CCN(c2ccccn2)CC1 (stereo not given) | 17.8%
CC(C)NC(=O)Cn1cc(OCc2ccc(F)cc2)c(=O)cc1CO | -4.49%
CN(C)C1CC2(CCN(C(=O)NC3CC3)CC2)c2ccccc21 (stereo not given) | -7.23%
CC(C)(C)OC(=O)N1CCN(S(=O)(=O)CCCC#N)C2(CCCCC2)C1 | -4.48%
Cc1ccc2c(c1)CN(CC(=O)NCCc1ccc(F)cc1)CC(C)O2 (stereo not given) | -7.54%
CNc1ccnc(N2C[C@@H](C)[C@](O)(C3CCC3)C2)n1 | 26%
CN(Cc1cn(C2CCNCC2)nn1)CC1CCCO1 (stereo not given) | -9.31%
COCCC(=O)N1CCC(c2noc3nc(C)cc(C(F)(F)F)c23)CC1 | -4.96%
COc1ccc(CCc2nnc(NC(=O)C3CC34CCC4)s2)cc1OC (stereo not given) | -8.17%
CC(NC1(CNS(C)(=O)=O)CCCC1)c1ccccc1 (stereo not given) | -16.9%
O=C(NCc1cccnc1)c1nc2c(s1)CCCN2c1ncccn1 | 5.15%
CCC(=O)Nc1ccc(F)c(S(=O)(=O)NC(C)(C)C)c1 | 8.07%
O=C(C1CC1)N1CCC2(CC1)CNCCO2 | 4.17%
CCCn1nc2c(cc1=O)CN(Cc1nc(C)c3ccccc3n1)CC2 | -7.04%
CCCS(=O)(=O)N1C[C@H]2C[C@H](C(=O)N3CCN(C)CC3)[C@@H](C1)O2 | 4.46%

Structure (SMILES) | cytotoxicity at 70.5 h
CCN1CCCn2c(nc(CNC(=O)c3ccsc3)cc2=O)C1 | -15.8%
Oc1nc(N2CCCC2)nc2c1CCN(Cc1ccsc1)CC2 | -8.09%
O=C1N(Cc2cccc(F)c2)CCC12CCCNC2 (stereo not given) | -13.6%
Cn1c(C2CCCN2C(=O)c2cn(CCN)nn2)nc2ccccc21 (stereo not given) | -15.7%
CCc1ocnc1C(=O)N1CCOCC1CC(=O)c1ccccc1 (stereo not given) | -7.1%
COCC(=O)N1CCc2c(nnn2C)C1COCCN1CCCC1 (stereo not given) | -2.45%
Cc1ccccc1OCC(=O)N1CCN(C2CCOC2=O)CC1 (stereo not given) | 0.726%
CCOCCN1CCN(CC(O)c2ccc(C)c(C)c2)CC1 (stereo not given) | -10.1%
CCn1c(CN2CCN(CC(N)=O)CC2)nc2c(F)cccc21 | -0.996%
CCc1c(C)sc(NC(=O)CN2CCN(CC)CC2)c1C(=O)OC | -2.99%
CCN(CC)C(=O)[C@@H]1C[C@@H](NC(=O)c2cccc(N(C)C)c2)CN1C | 26.1%
Cc1ccoc1C(=O)N1C[C@H](OCc2cccnc2)[C@H]2OCCC[C@H]21 | -15.2%
CNc1snc(C)c1C(=O)N1CCCC(n2nc(C)nc2C)C1 (stereo not given) | -10.6%
Cc1cn(CC(=O)N(C)Cc2cccc3ncccc23)c(=O)[nH]c1=O | 6.82%
CC(C)Sc1ccc(N2CCN(Cc3ccccn3)CC2)nn1 | -12.7%
CC(Nc1ccn(CCS(C)(=O)=O)n1)c1ccc(C#N)cc1 (stereo not given) | -1.96%
CN(C)CCCNC(=O)c1cc(Cl)ccc1Cl | -14.5%
OCc1ccc(N2CCN(c3ncccn3)CC2)c(F)c1 | -5.65%
O=C(CC1CCN(c2cccnn2)CC1)NCCO | -6.47%
CC(C)NC(=O)NCCCc1cccc(F)c1 | 0.142%
Cc1cc(CN2C[C@@H]3CCCO[C@@H]3[C@H](Nc3ccccn3)C2)no1 | -8.77%
O=C(CN1CCCC1Cn1cncn1)NCCc1c(F)cccc1F (stereo not given) | 27.9%
CCn1nc(C)c(NC(=O)CN(C)C(C)c2nccs2)c1C (stereo not given) | -6.95%

Structure (SMILES) | cytotoxicity at 70.5 h
O=C(c1cocn1)N1CCC[C@]2(C[C@@H](OCC3CC3)CO2)C1 | -7.29%
O=C(c1cscn1)N1CCN2C[C@H](OCc3cccnc3)C[C@H]2C1 | 20%
N#CC(NC(=O)CC(F)(F)F)c1ccsc1 (stereo not given) | -7.23%
COCCNC(=O)c1nc2c(s1)CCCN2c1ccc(C)nn1 | 0.81%
CCOCCOC(C)C(=O)NCc1ccc(N2CCCCC2)cc1 (stereo not given) | 0.804%
Cn1c(N)nnc1SCC1OCCc2ccccc21 (stereo not given) | 6.39%
CC(C)c1noc(OCC(=O)N2CCCCC2C)n1 (stereo not given) | -2.39%
CC(C)c1noc(CCC(=O)NC(C)c2nnc3n2CCC3)n1 (stereo not given) | 0.884%
CC(NC(=O)c1ccc(=O)n(C)c1)c1ccccc1-n1cccn1 (stereo not given) | -19.9%
COCCN1CCCC2(CCN(c3nccnc3N(C)C)C2)C1=O (stereo not given) | -14.9%
N#Cc1cccc(CN2CCCC2Cn2cncn2)c1 (stereo not given) | -4.98%
CCN(C)c1ncnc2c1CCN(Cc1ccoc1)CC2 | -20.5%
COc1c(CNC2CCCOc3ccc(F)cc32)c(C)nn1C (stereo not given) | -2.26%
CCCNC(=O)CN(C)C1CCN(c2ccc(Cl)cc2)CC1 | -6.78%
Cc1ccc(C(NC(=O)C2CC2)c2cccc(S(C)(=O)=O)c2)cc1 (stereo not given) | -4.47%
CN(C)CC(C)(C)CN1CCC(c2ccnc(-c3cccc(O)c3)c2)C1 (stereo not given) | -8.34%
Cc1cc(N2CCOCC2)ccc1NC(C)c1nc(C(C)C)no1 (stereo not given) | -0.714%
CC(C)(C)c1cn2nc(N3CCCC3Cn3cncn3)sc2n1 (stereo not given) | -10.8%
CN1CCOC(CN(C(=O)CN2CCCC2=O)c2nccs2)C1 (stereo not given) | 9.36%
CCN(Cc1cccc2c1OCO2)C(=O)NCCOC | 3.33%
CCCNC(=O)CCNC(=O)c1ccccc1N1CCOCC1 | -4.62%
Cc1csc2ncc(-c3ccnc(N4CCCC[C@@H]4CO)n3)c(=O)n12 | 20.9%
CS(=O)(=O)NC[C@]12COC[C@H]1CN(C(=O)CCc1ccccc1)C2 | -2.39%

Structure (SMILES) | cytotoxicity at 70.5 h
CS(=O)(=O)NC1CCCN(C(=O)NCc2ccoc2)C1 (stereo not given) | 0.0228%
O=C(c1ncccn1)N1C[C@H]2CCC[C@@]2(COCc2cccnc2)C1 | 15.8%
O=C(NCC(F)(F)F)C1CCCN(Cc2ccno2)C1 (stereo not given) | -3.85%
N#CCCN(Cc1cccnc1)C(=O)c1cccc(-n2cnnn2)c1 | -8.57%
NC(=O)c1ccc(NC(=O)Cn2cc(-c3ccccc3)ncc2=O)cc1 | -17.2%
CCN(CCNCc1cccc(C#N)c1)C1CC1 | 10.9%
O=S(=O)(NCc1cn2ccccc2n1)N1CCOCC1 | -12.1%
CNC(=O)c1cc2c(s1)CCN(C(=O)CCC1CCCN(C)C1)C2 (stereo not given) | -7.22%
CN(CCCOc1ccccc1)Cc1nccn1C | -4.56%
CCN(CC)CCCNc1nc(C)nc2c1CCN(C)C2 | -1.66%
Cc1nn(C)c(C)c1-c1cnc(C2CCCN(C)C2)cn1 (stereo not given) | -7.8%
CC(C)CNC(=O)c1nnsc1-c1ccccc1 | -11.5%
COCCN1CC(C(=O)NCc2ccc(C)s2)CC1=O (stereo not given) | -1.18%
CC(C)c1cc(CN(C)C(=O)CN2CCCCC2=O)no1 | 13.9%
CNC(=O)[C@H]1C[C@H]2OCC[C@H]2N(CC2CCOCC2)C1 | -8.61%
Cn1cc(C2CCCN2C(=O)c2cnc(-c3ncccn3)s2)cn1 (stereo not given) | -1.78%
COc1cc(C(=O)N2CCCS2(=O)=O)cc(Cl)c1OC | -9.28%
CCCc1cc(C(=O)N[C@H](C)[C@@H](O)c2ccc(O)cc2)n(C)n1 | -11.6%
Cc1ccccc1N1CCN(C2CCCN(C(=O)CCC(C)C)C2)CC1 (stereo not given) | -0.359%
Cc1cc(C(=O)N(Cc2c(C)nn(C)c2C)C(C)C)nc(C)n1 | 17%
Clc1ccc(C2(CNC3=NCCN3)CCCCC2)cc1 | 26.8%
O=S(=O)(CC1CCOCC1)NCc1ccnc(O)c1 | 10.4%
CC(C)N(C(=O)Cn1cc(Cl)cn1)c1ccccc1 | -4.68%
